Consider 2 compounds from ChEMBL document CHEMBL1122626, “(+/-)-4-Aryl-4,5-dihydro-3H-1,3-benzodiazepines. 3. 2-Phenyl and 2-amino analogues as potential antihypertensive agents” (1984).

The subject of experiment [1] is Rattus norvegicus. Nature of the experiment: Antihypertensive activity was evaluated in spontaneously hypertensive rat model with base line systolic pressure of 189 mmHg by the indirect tail-cuff method at an oral screening dose of 50 mg/kg. The format is functional, Blood.
Experiment [2] has as its system Rattus norvegicus. Description: Antihypertensive activity was evaluated in spontaneously hypertensive rat model with base line systolic pressure of 174 mmHg by the indirect tail-cuff method at an oral screening dose of 50 mg/Kg. The format is functional, Blood.

`CN1C(c2ccccc2)=Nc2ccccc2CC1c1ccccc1.Cl` (configuration not stated) had a BP in experiment [1] of -56 mmHg.
With `N=C(N)NCCN1CCCCCCC1` [GUANETHIDINE], the BP in experiment [2] is recorded as -20 mmHg.
